Measurements reported in PubChem BioAssay AID1435 (PCMD, 2008).
Activity calls are given as the source filed them. How the calls were made is not given here.

Molecular target: DNA repair protein RAD51 homolog 1 (Homo sapiens) (UniProt Q06609)
Assay: concentration-dependent blocking of RAD51 activity – biochemical, homologous recombination, fluorescence, dose response (AID 1435)
Settings: RAD51 homologous recombination biochemical assay

DNA repair protein RAD51 homolog 1 (Homo sapiens), sequence (Q06609 whole entry, looked up): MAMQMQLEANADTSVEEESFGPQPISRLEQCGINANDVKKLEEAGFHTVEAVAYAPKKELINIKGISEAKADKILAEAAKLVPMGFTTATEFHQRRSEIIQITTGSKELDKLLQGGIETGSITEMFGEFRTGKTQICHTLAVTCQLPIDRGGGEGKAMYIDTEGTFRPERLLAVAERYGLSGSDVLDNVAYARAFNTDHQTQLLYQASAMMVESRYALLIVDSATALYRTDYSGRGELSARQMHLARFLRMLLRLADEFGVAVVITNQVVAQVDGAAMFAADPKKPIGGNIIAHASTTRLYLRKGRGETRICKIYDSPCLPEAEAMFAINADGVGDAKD

Structure (SMILES) | IC50
CCCCCOCC1CC(C/C(C)=N/Nc2nc(-c3ccccc3)cs2)C(=O)O1 (stereo not drawn) | > 85 µM (inactive)
COC(=O)/C(=C\Nc1cccc(Cl)c1C)c1ncc(C(F)(F)F)cc1Cl | > 85 µM (inactive)
COc1cccc2c1C(=O)c1c(O)c3c(c(O)c1C2=O)C[C@@](O)(C(=O)CO)C[C@@H]3O[C@H]1C[C@H](N)[C@@H](O)[C@H](C)O1 | 1.4 µM
